Test results: patent US8110365B2, “Compositions and methods for detecting and treating renal injury and inflammation” (Rhode Island Hospital, priority 2006, dated 2012)
Entries after “also recorded” stand apart in the source; their conditions may differ. Like-named read-outs stand apart in the source and are kept apart here.

What was measured:
b-catenin = b-catenin accumulation in HKC; format: cell-based, human
GSK3b = GSK3b (Homo sapiens, UniProt P49841); assay: Inhibitory phosphorylation of GSK3b in HKC cells (immunoblot); format: cell-based; parameters: endogenous in cells; host or cells: HKC-8
GSK3b, sequence (P49841 whole entry): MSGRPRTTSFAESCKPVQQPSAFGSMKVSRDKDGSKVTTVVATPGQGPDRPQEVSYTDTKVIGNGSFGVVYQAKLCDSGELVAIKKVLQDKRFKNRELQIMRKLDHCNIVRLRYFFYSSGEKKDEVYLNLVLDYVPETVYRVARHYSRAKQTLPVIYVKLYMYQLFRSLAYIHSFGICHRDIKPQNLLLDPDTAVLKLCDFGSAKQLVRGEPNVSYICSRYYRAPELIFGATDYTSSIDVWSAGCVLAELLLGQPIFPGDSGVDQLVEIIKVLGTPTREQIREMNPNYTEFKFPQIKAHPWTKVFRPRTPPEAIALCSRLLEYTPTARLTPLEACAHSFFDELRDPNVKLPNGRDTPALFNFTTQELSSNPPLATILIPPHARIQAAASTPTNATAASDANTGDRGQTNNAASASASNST
Description: (§1) Human proximal TEC (HKC-8) (courtesy of Dr. L. Racusen of John Hopkins University, Baltimore, Md.) were maintained in Dulbecco's modified Eagle's medium (DMEM)/F12 supplemented with 5% fetal bovine serum (FBS). Cells were plated at approximately 70% confluence in the media containing 5% FBS for 24 h and then underwent serum starvation for another 24 h. Human recombinant HGF and human recombinant TNF-α (R&D systems, Minneapolis, Minn.) were added to the culture with fresh serum-free medium at a final concentration of 20 ng/ml and 2 ng/ml respectively, or otherwise as indicated. Cell viability was assessed by Trypan blue exclusion. At different time points, cells and conditioned media were harvested for further investigation.
(§2) After different treatments, HKC cells were washed with PBS and lysed with RIPA buffer supplemented with protease inhibitors [1% Nonidet P-40, 0.1% SDS, 100 ug/ml phenylmethysulfonyl fluoride (PMSF), 0.5% sodium deoxycholate, ImM sodium orthovanadate, 2 ug/ml aprotin, 2 ug/ml leupeptin, 5mM EDTA in PBS]. Protein concentration was determined by using a bicinchoninic acid protein assay kit (Sigma). All samples with equal amounts of total protein (50 ug/ml) were fractionated by 7.5˜15% SDS-polyacrylamide gels under reducing condition and analyzed by western immunoblot as described previously (30). The antibodies against p-GSK3b, p-NFkB p65, p-IkBa were purchased from Cell Signaling Technology (Beverly, Mass.) and those for GSK3b, hemagglutin were from Santa Cruz Biotechnology (Santa Cruz, Calif.).

HKC cells = assay: Cell viability of HKC cells (Trypan blue exclusion); format: cell-based, human; settings: TNF-a (2 ng/ml) treated HKC cells at 24 h
Description: as §1

GSK3b and NFkB p65 = target: T1, GSK3b and NFkB p65 (Homo sapiens, UniProt P49841); assay: Co-immunoprecipitation of GSK3b and NFkB p65 in HKC cells; format: cell-based; settings: HKC cells
T1 construct: whole cell lysates were subjected to immunoprecipitation by anti-GSK3b or anti-p65 antibody; endogenous in cells; host or cells: HKC-8
T1 sequence (P49841 whole entry): as above
Description: Immunoprecipitation was carried out by using an established method as described previously. Briefly, cells were washed with ice cold PBS and then lysed with RIPA buffer. After preclearing with normal IgG, cell lysates with equal amount of total protein (0.5 mg of protein) were incubated overnight at 4° C. with 4 μg specific agarose-conjugated antibodies. The precipitated complexes were collected, washed, and separated on SDS-polyacrylamide gels and blotted with various antibodies as indicated.

[1] = test system: rats with unilateral urethral obstruction(UUO); assay: Rats with unilateral urethral obstruction (UUO); format: in vivo, rat; settings: for renal inflammation (ED-1 macrophage infiltration): VPA 200 mg/kg/d ip, 5 days
NFkB p65 = assay: TNF-a induced NFkB p65 phosphorylation in HKC cells (immunoblot); format: cell-based, human; settings: HKC cells; for TNF-a induced p65 phosphorylation at S468: TNF-a 2 ng/ml, VPA 1 mM, 10 uM for 60 minutes
Description: as §1, §2

NFkB target genes = assay: Real time RT-PCR of NFkB target genes in TNF-a stimulated HKC cells; format: cell-based, human; settings: HKC cells, 12 h
Description: Total RNA was extracted from approximately 1×10^6 cultured HKC cells using TRIzol solution (Invitrogen, Carlsbad, Calif.) according to the instructions specified by the manufacturer. RNA was then diluted to 3μg/μl in RNase free distilled water. The first strand cDNA was prepared using 3 μg RNA, Superscript RT reverse transcriptase (Invitrogen) and oligo (dT) primer according to the manufacture's instruction. Quantitative real time PCR was carried out on a Stratagene Mx4000® multiplex quantitative PCR system (Stratagene, La Jolla, Calif.) using primers specific for human MCP-1, RANTES, IkBa, Bcl-2 and GAPDH. All reactions were performed in triplicate with Brilliant® SYBR® Green QPCR Master Mix (Stratagene). Fluorescence values of SYBR Green I dye, representing the amount of product amplified at that point in the reaction, were recorded in real time at both the annealing step and the extension step of each cycle. The Ct value, defined as the point at which the fluorescence signal was statistically significant above background, was calculated for each amplicon in each experimental sample using Stratagene Mx4000 software. This value was then used to determine the relative amount of amplification in each sample by interpolating from the standard curve. Transcript level of each specific gene was normalized to GAPDH amplification.

[2] = kidney homogenates, immunoblot, listed as VPA

## Cn1sc(=O)n(Cc2ccccc2)c1=O [TDZD-8]
b-catenin
  b-catenin accumulation: induced b-catenin (b-Cat.) accumulation
GSK3b
  inhibitory phosphorylation of GSK3b (S9): induced marked GSK3b phosphorylation
HKC cells
  cell viability / TNF-a induced apoptosis: Only lithium significantly reduced cell viability

## CCCC(CCC)C(=O)O [valproate, Valproic acid, reference compound]
GSK3b and NFkB p65; immunoprecipitation by anti-GSK3b
  TNF-a induced co-precipitation of phosphorylated p65 (Ser468) with GSK3b: mimicking the action of VPA
GSK3b and NFkB p65; immunoprecipitation by anti-p65
  TNF-a induced GSK3b to p65 interaction: reminiscent the effect of VPA
b-catenin
  b-catenin accumulation: induced b-catenin (b-Cat.) accumulation
[1]
  renal inflammation (ED-1 macrophage infiltration): prevented inflammatory infiltration; also recorded: markedly ameliorates renal inflammation
[1]; listed as VPA
  renal inflammation (ED-1 macrophage infiltration): diminished renal inflammation
[1]; kidney homogenates, immunoblot
  renal total GSK3b expression: blunted induced expression of GSK3b in the diseased kidney
[1]; [2]
  renal inhibitory phosphorylation of GSK3b: much greater; also recorded: enhanced its inhibitory phosphorylation
  renal total GSK3b expression: substantially suppressed total GSK3b expression
NFkB p65
  TNF-a induced p65 phosphorylation at other sites (S276, S536): minimally affected phosphorylation of p65 at other sites
  TNF-a induced p65 phosphorylation at S468: suppresses TNF-a elicited p65 phosphorylation at S468
NFkB p65; listed as VPA
  TNF-a induced p65 phosphorylation at S468: abrogates the TNF-a induced NFkB p65 phosphorylation at Ser468 in a dose dependent manner
GSK3b
  inhibitory phosphorylation of GSK3b (S9): induced marked GSK3b phosphorylation
GSK3b; listed as Sodium valproate
  inhibitory phosphorylation of GSK3b (S9): induced phosphorylation of GSK3b at Ser9
GSK3b; listed as Valproic acid
  inhibitory phosphorylation of GSK3b (S9): induces inhibitory phosphorylation of GSK3b at S9
HKC cells
  cell viability / TNF-a induced apoptosis: Only lithium significantly reduced cell viability
NFkB target genes
  TNF-a induced mRNA expression of IkBa and Bcl-2: mimicked the action of HGF on the expression of these genes
  TNF-a induced mRNA expression of MCP-1 and RANTES: mimicked the action of HGF on the expression of these genes
